Like-named read-outs stand apart in the source and are kept apart here. *1 amine or outer side, *2 acyl side, *3 side chain or, on linkers, in order; H or OH if unused. Where a SMILES comes first, the peptide text is derived from it. Bridges are numbered along the chain shown (N, C = ends). [ ]: non-standard residue; d: D form. Trp(6-F) = N[C@@H](Cc1c[nH]c2cc(F)ccc12)C(=O)O; Lys(N3) = [N-]=[N+]=NCCCC[C@H](N)C(=O)O; 2Nal = N[C@@H](Cc1ccc2ccccc2c1)C(=O)O; AEF = NCCOc1ccc(C[C@H](N)C(=O)O)cc1; X1 = O=C(Cc1ccc(CN[*:1])cc1)[*:2]; 3Pal = N[C@@H](Cc1cccnc1)C(=O)O; αMeL = CC(C)C[C@](C)(N)C(=O)O; CH2COCH2 = O=C(C[*:1])C[*:2]; 3Amb = NCc1cccc(C(=O)O)c1; Pra = C#CC[C@H](N)C(=O)O; Dab = NCC[C@H](N)C(=O)O
T1: human IL-23R (Homo sapiens, UniProt Q5VWK5)
T1 construct: UniProtKB—Q5VWK5, amino acids 22-629; secretion signal of the plasmid (Promega N1371); expressed in transfected cells
T1 sequence (Q5VWK5 22-629): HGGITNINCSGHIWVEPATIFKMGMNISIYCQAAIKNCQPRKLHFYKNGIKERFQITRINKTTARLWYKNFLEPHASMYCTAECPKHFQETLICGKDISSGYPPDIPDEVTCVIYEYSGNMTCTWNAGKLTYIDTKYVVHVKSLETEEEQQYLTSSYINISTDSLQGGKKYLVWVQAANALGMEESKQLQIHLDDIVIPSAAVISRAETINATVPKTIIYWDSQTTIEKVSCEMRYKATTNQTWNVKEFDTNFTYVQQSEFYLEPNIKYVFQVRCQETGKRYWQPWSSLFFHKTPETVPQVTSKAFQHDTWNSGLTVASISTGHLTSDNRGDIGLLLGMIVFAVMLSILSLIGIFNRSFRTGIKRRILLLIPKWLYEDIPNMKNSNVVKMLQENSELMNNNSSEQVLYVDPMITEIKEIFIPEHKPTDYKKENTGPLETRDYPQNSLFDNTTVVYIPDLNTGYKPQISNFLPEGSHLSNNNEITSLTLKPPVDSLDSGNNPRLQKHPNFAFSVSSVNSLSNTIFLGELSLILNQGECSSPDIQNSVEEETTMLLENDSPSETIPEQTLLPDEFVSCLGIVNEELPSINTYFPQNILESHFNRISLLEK

T2: Nluc-IL23R fusion protein (human, UniProt Q5VWK5 22-629)
T2 construct: range 22-629; Stably expressed in HEK293 cells; also called hIL-23R; human IL-23R fused to a Nanoluc luciferase enzyme; not shown: Nanoluc luciferase (Promega N1371 plasmid) at the N-terminus
T2 sequence (looked up): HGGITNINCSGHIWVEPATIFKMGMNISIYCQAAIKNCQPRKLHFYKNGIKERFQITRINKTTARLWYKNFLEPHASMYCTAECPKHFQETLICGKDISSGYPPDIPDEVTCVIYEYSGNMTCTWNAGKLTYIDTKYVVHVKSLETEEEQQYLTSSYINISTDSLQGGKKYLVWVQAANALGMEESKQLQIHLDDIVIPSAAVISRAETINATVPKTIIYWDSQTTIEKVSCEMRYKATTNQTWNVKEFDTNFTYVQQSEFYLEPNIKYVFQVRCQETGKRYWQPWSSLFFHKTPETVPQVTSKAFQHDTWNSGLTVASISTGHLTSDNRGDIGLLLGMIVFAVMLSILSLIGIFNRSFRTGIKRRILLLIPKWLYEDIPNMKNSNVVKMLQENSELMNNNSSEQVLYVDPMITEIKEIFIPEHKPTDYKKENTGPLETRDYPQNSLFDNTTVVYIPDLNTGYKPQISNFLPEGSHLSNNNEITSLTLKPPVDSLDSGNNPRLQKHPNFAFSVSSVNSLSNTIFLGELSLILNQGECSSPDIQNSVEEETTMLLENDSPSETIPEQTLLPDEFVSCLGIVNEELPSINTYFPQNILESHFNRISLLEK

B1: Compound 34 (peptide)
peptide: GKTCWECWWXES
HELM: PEPTIDE1{[ac].G.K.T.C.W.E.C.W.W.[CC(C)C[C@](C)(N[*:1])C(=O)[*:2]].E.S.[am]}|CHEM1{[O=C(C[*:1])C[*:2]]}$PEPTIDE1,PEPTIDE1,3:R3-12:R3|PEPTIDE1,CHEM1,5:R3-1:R1|PEPTIDE1,CHEM1,8:R3-1:R2$$$V2.0
SMILES: CC(=O)NCC(=O)N[C@H]1CCCCNC(=O)CC[C@@H](C(=O)N[C@@H](CO)C(N)=O)NC(=O)[C@](C)(CC(C)C)NC(=O)[C@H](Cc2c[nH]c3ccccc23)NC(=O)[C@H](Cc2c[nH]c3ccccc23)NC(=O)[C@@H]2CSCC(=O)CSC[C@H](NC(=O)[C@H]([C@@H](C)O)NC1=O)C(=O)N[C@@H](Cc1c[nH]c3ccccc13)C(=O)N[C@@H](CCC(=O)O)C(=O)N2
B2: Compound 33 (peptide)
peptide: Ac-CTCWECWW[αMeL]CS-NH2
modifications: linker 1-10, 3-6 via CH2COCH2
SMILES: CC(=O)N[C@H]1CSCC(=O)CSC[C@@H](C(=O)N[C@@H](CO)C(N)=O)NC(=O)[C@](C)(CC(C)C)NC(=O)[C@H](Cc2c[nH]c3ccccc23)NC(=O)[C@H](Cc2c[nH]c3ccccc23)NC(=O)[C@@H]2CSCC(=O)CSC[C@H](NC(=O)[C@H]([C@@H](C)O)NC1=O)C(=O)N[C@@H](Cc1c[nH]c3ccccc13)C(=O)N[C@@H](CCC(=O)O)C(=O)N2

How the values were obtained:
human IL-23R = target: T1, human IL-23R; experiment: Binding assay (NanoBRET displacement of fluorophore-labelled reference compound) for estimating binding affinity to human IL-23R; conditions: for IL-23R inhibitory activity (in words): with reference to Ki and IC50 data of the Examples
[1] = target: IL-23 mediated phospho-STAT3 formation in DB cells (Homo sapiens, UniProt Q5VWK5); experiment: Functional inhibition of IL-23 mediated STAT3 signalling (phospho-STAT3 Tyr705 MSD) in DB cells; assay type: cell-based; conditions: DB cells, read-out: IC50 (pSTAT3)
In short: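 DB cells preincubated 15 min with compound at 37° C, then stimulated 90 min with hIL-23 at EC80. Lysate phospho-STAT3 measured by MSD, normalized to IL-23-alone and buffer wells; IC50 and maximal % inhibition from 4PL fit.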

[2] = Peptide stability in simulated intestinal fluid (SIF); assay type: in vitro ADME; conditions: pig
In short: (§1)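 Peptides incubated at 37°C with gentle shaking in SGF (NaCl, HCl, pH 1.2) or SIF (phosphate pH 6.8 with 10 g/L porcine pancreatin). Samples analysed by LC-HRMS; percent remaining at each timepoint calculated from absolute peak areas relative to time zero.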

[3] = Peptide stability in simulated gastric fluid (SGF); assay type: in vitro ADME; conditions: pig
In short: as §1

[4] = target: T2, Nluc-IL23R fusion protein; experiment: BRET displacement of TAMRA-labelled peptide, Nluc-IL23R membranes
[5] = simulated intestinal fluid (SIF) with porcine pancreatin, Table 3-2, porcine pancreatin, pH 6.8, 37° C., 10 μM, 1 h, read-out: SIF (% remaining 1 h)
[6] = simulated intestinal fluid (SIF) with porcine pancreatin, Table 3-2, porcine pancreatin, pH 6.8, 37° C., 10 μM, 4 h, read-out: SIF (% remaining 4 h)
[7] = simulated gastric fluid (SGF) with porcine pepsin, Table 3-3, porcine pepsin, pH 1.2, 37° C., 10 μM, 1 h, read-out: SGF (% remaining 1 h)
[8] = simulated gastric fluid (SGF) with porcine pepsin, Table 3-3, porcine pepsin, pH 1.2, 37° C., 10 μM, 4 h, read-out: SGF (% remaining 4 h)
[9] = Table 3-1, read-out: Ki hIL-23R

Molecule	remaining at 1 h, 10 μM [2, 5]	remaining at 4 h, 10 μM [2, 6]	remaining at 1 h, 10 μM [3, 7]	remaining at 4 h, 10 μM [3, 8]	Ki (human IL-23R; [9])	Ki [4]	other results
CC(=O)N[C@@H](CC(=O)O)C(=O)N[C@H]1CCCCNC(=O)CC[C@@H](C(=O)N[C@@H](CCCNC(=N)N)C(N)=O)NC(=O)[C@H](CC(C)C)NC(=O)[C@H](Cc2c[nH]c3ccccc23)NC(=O)[C@H](Cc2c[nH]c3ccccc23)NC(=O)[C@@H]2CSCC(=O)CSC[C@H](NC(=O)[C@H](CO)NC1=O)C(=O)N[C@@H](Cc1c[nH]c3ccccc13)C(=O)N[C@@H](CCC(N)=O)C(=O)N2 [Compound 7, [Ac]-DK(1c)SC(2a)WQC(2a)WWLE(1c)R-[NH2]] (HELM PEPTIDE1{[ac].D.K.S.C.W.Q.C.W.W.L.E.R.[am]}|CHEM1{[O=C(C[*:1])C[*:2]]}$PEPTIDE1,PEPTIDE1,3:R3-12:R3|PEPTIDE1,CHEM1,5:R3-1:R1|PEPTIDE1,CHEM1,8:R3-1:R2$$$V2.0)	0%	0%	0%	0%	–	–	potency depending on location of the amide bond in the [2,11] lactam bridge (in words) (human IL-23R; Compound 7 (amide closer to position 11) versus Compound 4 (closer to position 2), Table 2-3b): more active; Ki (human IL-23R; Table 2-3b, read-out: Ki IL-23R): 26.8 nM; IC50 ([1]; Table 2-3b): 159 nM
CC(C)C[C@H]1NC(=O)[C@H](Cc2ccc3ccccc3c2)NC(=O)[C@H](Cc2ccc(OCCN)cc2)NC(=O)[C@@H]2CSCC(=O)CSC[C@H](NC(=O)[C@H](CO)NC(=O)c3cccc(c3)CNC(=O)CC[C@@H](C(=O)N[C@@H](Cc3ccc(O)cc3)C(N)=O)NC1=O)C(=O)N[C@@H](Cc1c[nH]c3ccccc13)C(=O)N[C@@H](CCC(N)=O)C(=O)N2 [Compound 46, [(3-Aminomethyl)benzoyl](1c)*SC(2a)WQC(2a)[Y(2-aminoethoxy)][2-Nal][{d}L]E(1c)Y-[NH2]] ([3Amb]SCWQC[AEF][2Nal][dL]EY-NH2; linker 3-6 via CH2COCH2; lactam N-10)	9%	0%	83%	66%	48.2 nM	–	–
CC(C)C[C@]1(C)NC(=O)[C@H](Cc2c[nH]c3cc(F)ccc23)NC(=O)[C@H](Cc2ccc(OCCN)cc2)NC(=O)[C@@H]2CSCC(=O)CSC[C@H](NC(=O)[C@H](CO)NC(=O)Cc3ccc(cc3)CNC(=O)CC[C@@H](C(=O)N[C@@H](CCN)C(=O)N[C@@H](Cc3cccnc3)C(N)=O)NC1=O)C(=O)N[C@@H](Cc1c[nH]c3ccccc13)C(=O)N[C@@H](CCC(N)=O)C(=O)N2 [Compound 121, [4-Aminomethyl-phenylacetyl](1c)*SC(2a)WQC(2a)[Y(2-aminoethoxy)][6-F-Trp][2-Me-Leu]E(1c)[Dab][3-(3-Pyridyl)-Ala]-[NH2]] ([X1]SCWQC[AEF][Trp(6-F)][αMeL]E[Dab][3Pal]-NH2; linker 3-6 via CH2COCH2; lactam N-10)	–	–	–	–	0.00954 nM	–	remaining at 1 h, 10 μM ([2]; pH 6.8): 57%; remaining at 4 h, 10 μM ([2]; pH 6.8): 6%; remaining at 1 h, 10 μM ([3]; pH 1.2): 82%; remaining at 4 h, 10 μM ([3]; pH 1.2): 80%
CC(C)C[C@]1(C)NC(=O)[C@H](Cc2ccc3ccccc3c2)NC(=O)[C@H](Cc2ccc(OCCN)cc2)NC(=O)[C@@H]2CCCNC(=O)CC[C@H](NC(=O)[C@H](CO)NC(=O)Cc3ccc(cc3)CNC(=O)CC[C@@H](C(=O)N[C@@H](CCN)C(=O)N[C@@H](Cc3cccnc3)C(N)=O)NC1=O)C(=O)N[C@@H](Cc1c[nH]c3ccccc13)C(=O)N[C@@H](CCC(N)=O)C(=O)N2 [Compound 124, [4-Aminomethyl-phenylacetyl](1c)*SE(2c)WQ[Orn](2c)[Y(2-aminoethoxy)][2-Nal][2-Me-Leu]E(1c)[Dab][3-(3-Pyridyl)-Ala]-[NH2]]	35%	0%	–	89%	0.0107 nM	–	–
CC(=O)N[C@@H](CC(=O)O)C(=O)N[C@H]1CCC(=O)NCCCC[C@@H](C(=O)N[C@@H](CCCNC(=N)N)C(N)=O)NC(=O)[C@H](CC(C)C)NC(=O)[C@H](Cc2c[nH]c3ccccc23)NC(=O)[C@H](Cc2c[nH]c3ccccc23)NC(=O)[C@@H]2CSCC(=O)CSC[C@H](NC1=O)C(=O)N[C@@H](Cc1c[nH]c3ccccc13)C(=O)N[C@@H](CCC(N)=O)C(=O)N2 [Ref 5, [Ac]-DE(1c)C(2a)WQC(2a)WWLK(1c)R-[NH2], reference compound] (HELM PEPTIDE1{[ac].D.E.C.W.Q.C.W.W.L.K.R.[am]}|CHEM1{[O=C(C[*:1])C[*:2]]}$PEPTIDE1,PEPTIDE1,3:R3-11:R3|PEPTIDE1,CHEM1,4:R3-1:R1|PEPTIDE1,CHEM1,7:R3-1:R2$$$V2.0)	0%	0%	1%	0%	> 1000 nM	–	IL-23R inhibitory activity (in words) (human IL-23R): inactive; IC50 ([1]; Table 3-1): > 1000 nM
CC(=O)N[C@@H](CC(=O)O)C(=O)N[C@H]1CCC(=O)NCCCC[C@@H](C(=O)N[C@@H](CCCNC(=N)N)C(N)=O)NC(=O)[C@H](CC(C)C)NC(=O)[C@H](Cc2c[nH]c3ccccc23)NC(=O)[C@H](Cc2c[nH]c3ccccc23)NC(=O)[C@@H]2CSCC(=O)CSC[C@H](NC(=O)[C@H](CO)NC1=O)C(=O)N[C@@H](Cc1c[nH]c3ccccc13)C(=O)N2 [Ref 6, [Ac]-DE(1c)SC(2a)WC(2a)WWLK(1c)R-[NH2], reference compound] (HELM PEPTIDE1{[ac].D.E.S.C.W.C.W.W.L.K.R.[am]}|CHEM1{[O=C(C[*:1])C[*:2]]}$PEPTIDE1,PEPTIDE1,3:R3-11:R3|PEPTIDE1,CHEM1,5:R3-1:R1|PEPTIDE1,CHEM1,7:R3-1:R2$$$V2.0)	0%	0%	0%	0%	> 1000 nM	–	IL-23R inhibitory activity (in words) (human IL-23R): inactive; IC50 ([1]; Table 3-1): > 1000 nM
Ac-DKS[Lys(N3)]WQ[Pra]W[2Nal]LER-NH2 (lactam 2-11; triazole 4-7) [Compound 23]	–	–	–	–	–	117 nM	–
H-DCSCWECWWLCR-NH2 (linker 2-11, 4-7 via CH2COCH2) [Compound 3]	–	–	–	–	–	205 nM	–
B1	–	–	–	–	–	65 nM	–
B2	–	–	–	–	–	189 nM	–
